# Article PMC8501640, “Altered Env conformational dynamics as a mechanism of resistance to peptide-triazole HIV-1 inactivators” (Retrovirology, 2021)
# *1 amine or outer side, *2 acyl side, *3 side chain or, on linkers, in order; H or OH if unused. Where a SMILES comes first, the peptide text is derived from it. Bridges are numbered along the chain shown (N, C = ends). [ ]: non-standard residue; d: D form. X1 = O=C([C@@H]1CC(n2cc([C]34[CH]5[CH]6[CH]7[CH]3[Fe]6754389%10[CH]4[CH]3[CH]8[CH]9[CH]4%10)nn2)CN1[*:1])[*:2]
# Experiments:
# [1] = test system: S143N NL4-3 Env on HEK293T cells; assay: gp120 shedding analysis by flow cytometry, S143N Env; format: cell-based, HIV-1; conditions: S143N mutant Env trimer; 50-fold higher than the EC50 value for wild type Env
# Protocol: (§1) The measurements (mean fluorescence intensity) were obtained by flow cytometry using an anti-Env IgG (mAb 35O22) that recognizes a quaternary epitope at the gp120/gp41 interface.
# (§2) The gp120 shedding assay was performed as described previously. Briefly, three million HEK293T cells per flask were transiently transfected with 4 μg of HIV-1 NL4-3 Env plasmid and transfection reagent FuGENE 6 (Promega). 5 mM EDTA in DPBS was used to detach cells at 24 h and cells were reseeded in 96-well plates with 50,000 cells per well. […] Cells were washed with fresh medium, detached with 5 mM EDTA, and then washed and resuspended in FC buffer (1% BSA and 1 mM EDTA in 10 mM PBS pH 7.4). 2% paraformaldehyde in DPBS was used to fix the cells for 15 min at room temperature. Cells were then washed and resuspended in the FC buffer three times. […] Cell counts and Env staining were assessed in counted cells on a Guava EasyCyte 5HT flow cytometry system (Millipore). Analyzed cells were subjected to forward/side scatter gating based on untreated control populations of identical transfection, and median fluorescence values were obtained using Guava InCyte 3.2 software. Data were analyzed in GraphPad Prism 9 using nonlinear regression fit with dose response-inhibitor equation (4 parameters).
# [2] = test system: wild type NL4-3 Env on HEK293T cells; assay: gp120 shedding analysis by flow cytometry, wild type Env; format: cell-based, HIV-1; conditions: WT NL4-3 Env on HEK293T cells; 37 °C, 2 h; mAb 35O22 flow cytometry; read-out: EC50 of induced gp120 shedding (intact Env trimers remaining)
# Protocol: as §1, §2
# [3] = test system: V255I/S143N NL4-3 Env on HEK293T cells; assay: gp120 shedding analysis by flow cytometry, V255I/S143N Env; format: cell-based, HIV-1
# Protocol: as §1, §2
# [4] = target: HxBc2 gp120 V255I/S143N monomer (Human immunodeficiency virus type 1 group M subtype B, UniProt P04578, S143N/V255I); assay: Isothermal titration calorimetry, V255I/S143N gp120; format: binding, HIV-1; conditions: 25 °C
# Protocol: (§3) Heats were obtained at 25 °C by injection of 8 μL of PT (100 μM) into a sample cell of a VP-ITC containing 1.4 mL recombinant HxBc2 gp120 (6–8 μM). Solid lines represent fits to a single site binding model.
# (§4) The resulting heat changes upon injection were integrated over a time range of 240 s, and the obtained values were fit to a standard single site-binding model using Origin® software.
# CEM-GFP cells = assay: WST-1 cytotoxicity assay; format: cell-based; conditions: up to concentrations of 125 μM
# Protocol: The cytotoxicity was determined on CEM-GFP cells via a colorimetric assay to measure the relative proliferation rates of cells in culture. […] After 18 h of incubation, the media containing compounds were discarded and treated with 10% (v/v) WST-1 (a tetrazolium salt) in fresh media for one hour at 37 °C. The cell viability was determined by measuring the absorbance at 450 nm using a Tecan Infinite F50 plate reader.
# Figure S1. […] Data represent means and standard deviations of three independent experiments performed in triplicate.
# [5] = target: HIV-1 HxBc2 gp120 V255I/S143N monomer (Human immunodeficiency virus type 1 group M subtype B, UniProt P04578, S143N/V255I); assay: Surface plasmon resonance, V255I/S143N gp120; format: binding
# Protocol: (§5) SPR experiments were performed on a Biacore 3000 biosensor (Global Cytiva Lifesciences) at 25 °C using PBS-P (10 mM Phosphate, 150 mM NaCl, pH 7.4, 0.005% P-20) as the running buffer. A CM5 sensor chip was docked and derivatized by amine coupling with HIV-1HxBc2 WT and mutant gp120 subunits using freshly prepared 1:1 50 mM NHS (N-hydroxysuccinamide):200 mM EDC (1-ethyl-3-(3-(dimethylamino)propyl) carbodiimide). […] The equilibrium dissociation constant was calculated as KD = k−1/k1.
# (§6) Rate constants k1 and k-1 are defined as they are in the 1:1 binding model, while k2 and k-2 are first order rate constants describing isomerization and de-isomerization, respectively. Equations describing the time course of the interactions can be found in Additional file 1: Method S1. For the fit, it was assumed that the states Env·PT and Env·PT^∗ had the same SPR signal. Rate constants were determined using a least-squares gradient-step algorithm coded in Visual Basic and implemented through Microsoft Excel.
# [6] = test system: V255I NL4-3 Env on HEK293T cells; assay: gp120 shedding analysis by flow cytometry, V255I Env; format: cell-based, HIV-1
# Protocol: as §1, §2
# [7] = target: HIV-1 HxBc2 gp120 WT monomer (Human immunodeficiency virus type 1 group M subtype B, UniProt P04578); assay: Surface plasmon resonance, WT gp120; format: binding
# Protocol: as §5, §6
# [8] = target: HxBc2 gp120 V255I monomer (Human immunodeficiency virus type 1 group M subtype B, UniProt P04578, V255I); assay: Isothermal titration calorimetry, V255I gp120; format: binding, HIV-1
# Protocol: as §3, §4
# HxBc2 gp120 WT monomer = HxBc2 gp120 WT monomer (Human immunodeficiency virus type 1 group M subtype B, UniProt P04578); assay: Isothermal titration calorimetry, WT gp120; format: binding, HIV-1; conditions: 25 °C
# Protocol: as §3, §4
# [9] = target: HIV-1 HxBc2 gp120 V255I monomer (Human immunodeficiency virus type 1 group M subtype B, UniProt P04578, V255I); assay: Surface plasmon resonance, V255I gp120; format: binding
# Protocol: as §5, §6
# BaL.01 viruses = test system: BaL.01 viruses; set-up: method as in PMID 24330857, PMID 26331669; conditions: ref [16], [21], read-out: EC50 of induced gp120 shedding; cited from earlier work
smiles,measurement,setting,value
CC[C@H](C)[C@@H]1NC(=O)[C@H](CC(N)=O)NC(=O)[C@@H](N)CC(=O)NCCCC[C@@H](C(N)=O)NC(=O)[C@H](Cc2c[nH]c3ccccc23)NC(=O)[C@@H]2CC(n3cc([C]45[CH]6[CH]7[CH]8[CH]4[Fe]786549%10%11[CH]5[CH]4[CH]9[CH]%10[CH]5%11)nn3)CN2C1=O (some centres unmarked) [AAR029b] (H-DNI[X1]WK-NH2; lactam 1-6 (inferred)),disruption of Env trimer (shedding) at high concentration,[1],only minimal disruption
same,EC50,[2],249 ± 75 nM
same,decrease in sensitivity to ligand-induced shedding compared to wild type Env,[3],greater than tenfold
same,ITC binding stoichiometry n,[4],1.1 ± 0.04
same,ITC −TΔS,[4],1.0 ± 0.91 kcal/mol
same,cytotoxicity,CEM-GFP cells,minimal
same,SPR k1,[5]; PT association,3.6 (M^−1 s^−1) × 10^–5
same,SPR k-1,[5]; PT dissociation,110 (s^−1) × 10^3
same,decrease in sensitivity to ligand-induced shedding compared to wild type Env,[6],greater than tenfold
same,SPR k1,[7]; PT association,11 (M^−1 s^−1) × 10^–5
same,SPR k-1,[7]; PT dissociation,8.3 (s^−1) × 10^3
same,ITC binding stoichiometry n,"[8]; V255I gp120 (HxBc2), 25 °C",1.0 ± 0.01
same,ITC −TΔS,"[8]; V255I gp120 (HxBc2), 25 °C",0.43 ± 0.30 kcal/mol
same,absolute impact of V255I substitution on enthalpy (ΔH) and entropy (TΔS),"[8]; mutant vs wild type gp120, ITC",3.5 to 4.5 kcal/mol
same,ITC binding stoichiometry n,HxBc2 gp120 WT monomer,1.1 ± 0.04
same,ITC −TΔS,HxBc2 gp120 WT monomer,4.5 ± 0.90 kcal/mol
same,SPR k1,"[9]; V255I gp120, PT association",5.4 (M^−1 s^−1) × 10^–5
same,SPR k-1,"[9]; V255I gp120, PT dissociation",130 (s^−1) × 10^3
same,"decrease in binding affinity (KD) by the V255I mutation, SPR",[9]; V255I vs WT gp120,31 fold
same,EC50,BaL.01 viruses,315 nM
